Measurements reported in US9096524B2, “Anthelmintic agents and their use” (Intervet International B.V., priority 2009, dated 2015).
Like-named read-outs stand apart in the source and are kept apart here.

Test system: A. galli (intestinal roundworm of chicken) larval stage 3; O. dentatum (nodular worm of swine) larval stages 3 and 4
Assay: Activity against Ascaridia galli and Oesophagostomum dentatum larvae in vitro (minimum effective concentration)
Assay type: cell-based
[1] = in vitro, one or more of A. galli L3, O. dentatum L3, L4, threshold 1 μM, read-out: MEC (minimum effective concentration) against one or more of the tested nematodes
[2] = read-out: MEC (minimum effective concentration) against two or more of the tested nematodes, in vitro, two or more of A. galli L3, O. dentatum L3, L4, threshold 1 μM
[3] = in vitro, two or more of A. galli L3, O. dentatum L3, L4, threshold 1 μM, read-out: MEC (minimum effective concentration) against two or more of the tested nematodes
[4] = read-out: MEC (minimum effective concentration) against one or more of the tested nematodes, in vitro, one or more of A. galli L3, O. dentatum L3, L4, threshold 1 μM
[5] = read-out: MEC (minimum effective concentration) against one or more of the tested nematodes, in vitro, one or more of A. galli L3, O. dentatum L3, L4, threshold 7 μM
[6] = in vitro, one or more of A. galli L3, O. dentatum L3, L4, threshold 7 μM, read-out: MEC (minimum effective concentration) against one or more of the tested nematodes

SMILES | minimal effective concentration [1] [µM] | minimal effective concentration [3] [µM] | also measured
O=C(CC(=O)N1CCN(c2cccc(OC(F)(F)F)c2)CC1)N1CCC(Nc2ccc([N+](=O)[O-])c(C(F)(F)F)c2)CC1 [Example 210] | < 1 |  | 
O=C(CCN1CCC(c2cccc(C(F)(F)F)c2)CC1)N1CCC(Nc2ccc([N+](=O)[O-])c(C(F)(F)F)c2)CC1 [Example 212] | < 1 |  | 
O=C(CCCN1CCN(c2ccc(C(F)(F)F)cc2)CC1)N1CCC(Nc2ccc(Cl)c(Cl)c2)CC1 [Example 272] |  |  | minimal effective concentration [2]: < 1 µM
O=C(CCCN1CCN(c2ccc(C(F)(F)F)cc2)CC1)N1CC[C@H](Nc2ccc([N+](=O)[O-])c(C(F)(F)F)c2)C1 [Example 730] | < 1 | < 1 | 
O=C(CC(=O)N1CCN(c2ccc(C(F)(F)F)cc2)CC1)N1CCC(Nc2ccc([N+](=O)[O-])c(C(F)(F)F)c2)CC1 [Example 78, 1-[4-(4-nitro-3-trifluoromethyl-phenylamino)-piperidin-1-yl]-3-[4-(4-trifluoromethyl-phenyl)-piperazin-1-yl]-propane-1,3-dione] |  |  | minimal effective concentration [4]: < 1 µM; minimal effective concentration [5]: < 7 µM; minimal effective concentration [2]: < 1 µM
N#Cc1ccc(N2CCC(NC(=O)CCN3CCN(c4cccc(Cl)c4)CC3)CC2)cc1C(F)(F)F [Example 609] | < 1 |  | 
N#Cc1ccc(NC2CCN(C(=O)CCN3CCN(c4ccc(Cl)cn4)CC3)CC2)cc1C(F)(F)F [Example 764] |  |  | minimal effective concentration [2]: < 1 µM
CC(C)(C)c1ccc(N2CCN(CCCC(=O)N3CCC(Oc4ccc([N+](=O)[O-])c(C(F)(F)F)c4)CC3)CC2)cc1 [Example 258] | < 1 |  | 
CC(C)COc1cc(OC2CCN(C(=O)CCN3CCN(c4ccc(F)cc4F)CC3)CC2)ccc1[N+](=O)[O-] [Example 520] |  |  | minimal effective concentration [6]: < 7 µM
O=C(CCC1CCN(c2ccc(Cl)cc2)CC1)N1CCC(Nc2ccc([N+](=O)[O-])c(C(F)(F)F)c2)CC1 [Example 144, 3-[1-(4-chloro-phenyl)-piperidin-4-yl]-1-[4-(4-nitro-3-trifluoromethyl-phenylamino)-piperidin-1-yl]-propan-1-one] |  |  | minimal effective concentration [4]: < 1 µM; minimal effective concentration [5]: < 7 µM; minimal effective concentration [2]: < 1 µM
O=C(CCCC1CCN(c2ccc(Cl)cc2)CC1)N1CC[C@H](Nc2ccc([N+](=O)[O-])c(C(F)(F)F)c2)C1 [Example 734] |  |  | minimal effective concentration [6]: < 7 µM
O=C(CCCN1CCCN(c2ccc(Cl)cc2)CC1)N1CC[C@@H](Nc2ccc([N+](=O)[O-])c(C(F)(F)F)c2)C1 [Example 777] | < 1 |  | 
CC(C)COc1cc(NC2CCN(C(=O)CCN3CCC(c4ccc(C(C)(C)C)cc4)CC3)CC2)ccc1[N+](=O)[O-] [Example 457] |  |  | minimal effective concentration [6]: < 7 µM
CCOc1cc(OC2CCN(C(=O)CCN3CCN(c4ccc(OC)c(OC)c4)CC3)CC2)ccc1[N+](=O)[O-] [Example 495] | < 1 | < 1 | minimal effective concentration [6]: < 7 µM
O=C(CCN1CCCN(c2ccc(C(F)(F)F)cc2)CC1)N1CC[C@H](Nc2ccc([N+](=O)[O-])c(C(F)(F)F)c2)C1 [Example 725] |  | < 1 | 
COc1ccc(N2CCN(CCC(=O)N3CCC(Nc4ccc([N+](=O)[O-])c(C(F)(F)F)c4)CC3)CC2)cc1 [Example 254] |  | < 1 | 
O=C(CCN1CCN(c2ccc(Cl)cc2)CC1)N1CCC(Oc2ccc([N+](=O)[O-])c(C(F)(F)F)c2)CC1 [Example 421] |  | < 1 | 
O=[N+]([O-])c1ccc(NC2CCN(S(=O)(=O)CCN3CCN(C4CCCCC4)CC3)CC2)cc1C(F)(F)F [Example 248] |  | < 1 | 
CCOc1cc(NC2CCN(C(=O)CCN3CCN(c4ccc(C(F)(F)F)cc4)CC3)CC2)ccc1[N+](=O)[O-] [Example 402] | < 1 | < 1 | minimal effective concentration [6]: < 7 µM
CC(CN1CCN(c2ccc(C(F)(F)F)cc2)CC1)C(=O)N1CCC(Nc2ccc(SC(F)(F)F)cc2)CC1 (centres unmarked) [Example 661] |  |  | minimal effective concentration [2]: < 1 µM
O=C(CCN1CCN(c2cccc(Cl)c2)CC1)NC1CCN(c2ccc(C(F)(F)F)cn2)CC1 [Example 640] | < 1 |  | 
CC(CN1CCN(c2ccc(Cl)cc2)CC1)C(=O)N1CC[C@@H](Nc2ccc([N+](=O)[O-])c(C(F)(F)F)c2)C1 (some centres unmarked) [Example 752] |  |  | minimal effective concentration [2]: < 1 µM
FC(F)(F)Oc1ccc(NC2CCN(C(=S)CCCN3CCN(c4ccc(C(F)(F)F)cc4)CC3)CC2)cc1 [Example 701] |  | < 1 | 
